Measurements taken from patent US8637683B2, “Macrocyclic lactone derivatives for the treatment of cancer” (Piramal Enterprises Limited, priority 2009, dated 2014).
In brackets after ≈: the same amount, converted by molar mass.

Assays:
Format in all cases: cell-based, human
[1] = system: MEXF 462NL; experiment: Monolayer assay (modified propidium iodide), MEXF 462NL; conditions: Melanoma, 4 days of treatment
Text: (§1) Oncotest GmbH, Germany's proprietary tumor cell line panel comprises 40 cell lines. These cell lines were derived from 15 different tumor histotypes, each represented by 1 to 6 different cell lines. Cell lines were established from cancer of the bladder (3), colon (4), head and neck (1), lung (6), breast (3), pancreas (3), prostate (4), ovary (2), kidney (3), liver (1), stomach (1) and the uteri body (1), as well as from melanoma (3), sarcoma (2) and pleuramesothelioma (3). Out of these 40 cell lines, 24 cell lines were established at Oncotest, from patient-derived tumor xenografts. […]
(§2) Stock solutions of the test compounds (330 μg/mL in DMSO) were prepared and stored in small aliquots (200 μL) at −20° C. […] Each concentration was evaluated in triplicate. […]
(§3) Cells were plated in 96-well flat-bottom microtiter plates at a cell density of 4,000 to 10,000 cells/well. […] To measure the viable cell number, the remaining adherent cells were killed and permeabilized by repeated freezing and thawing and PI fluorescence was measured using the Cytofluor 4000 microplate reader (excitation λ=530 nm, emission λ=620 nm), which was a measure for the number of cells which survived treatment. […] IC-values were calculated based on the principle of linear two-point curve fit. […]

[2] = system: OVCAR3; experiment: Monolayer assay (modified propidium iodide), OVCAR3; conditions: OVCAR3, Ovarian, 4 days of treatment
Text: as §1, §2, §3

[3] = system: PAXF 546L; experiment: Monolayer assay (modified propidium iodide), PAXF 546L; conditions: Pancreas, 4 days of treatment
Text: as §1, §2, §3

[4] = system: H 460; experiment: Monolayer assay (modified propidium iodide), H 460; conditions: H 460, Lung, 4 days of treatment
Text: as §1, §2, §3

[5] = system: MEXF 276L; experiment: Monolayer assay (modified propidium iodide), MEXF 276L; conditions: Melanoma, 4 days of treatment
Text: as §1, §2, §3

[6] = system: LXF 526L; experiment: Monolayer assay (modified propidium iodide), LXF 526L; conditions: Lung, 4 days of treatment
Text: Oncotest GmbH, Germany's proprietary tumor cell line panel comprises 40 cell lines. These cell lines were derived from 15 different tumor histotypes, each represented by 1 to 6 different cell lines. Cell lines were established from cancer of the bladder (3), colon (4), head and neck (1), lung (6), breast (3), pancreas (3), prostate (4), ovary (2), kidney (3), liver (1), stomach (1) and the uteri body (1), as well as from melanoma (3), sarcoma (2) and pleuramesothelioma (3). Out of these 40 cell lines, 24 cell lines were established at Oncotest, from patient-derived tumor xenografts. The other 16 cell lines were either provided by the NCI (Bethesda; MD, USA) or were purchased from ATCC (Rockville, Md., USA) or DSMZ (Braunschweig, Germany).
Cell lines were routinely passaged once or twice weekly and maintained in culture for upto 20 passages. All cells were grown at 37° C. in a humidified atmosphere with 5% CO2 in RPMI 1640 medium supplemented with 10% (v/v) fetal calf serum (FCS) and 0.1 mg/mL gentamicin (medium and all other components from PAA, Cölbe, Germany). […]
as §2
as §3, with “treatment. Pharmacological effects on cell proliferation and survival were expressed as Test/Control×100 (% T/C) values, with T and C representing the fluorescence read-outs for wells with and without test compound, respectively, i.e. T/C represents the ratio of viable cell numbers following incubation of cell line with/without test compound.” for “treatment.”

[7] = system: MAXF 401NL; experiment: Monolayer assay (modified propidium iodide), MAXF 401NL; conditions: Mammary, 4 days of treatment
Text: as §1, §2, §3

[8] = system: RXF 486L; experiment: Monolayer assay (modified propidium iodide), RXF 486L; conditions: Renal, 4 days of treatment
Text: as §1, §2, §3

Work on `C/C=C/C(O)C(C)/C=C/C(=N\O)C(C)C(O)C(C)C1OC(=O)/C(OC)=C/C(C)=C/C(C)C(O)C(CC)C(O)C(C)C/C(C)=C/C=C/C1OC` (stereo not shown) [Example 7, (3Z,5E,13E,15E)-18-((5Z,6E,10E)-3,9-Dihydroxy-5-(hydroxymino)-4,8-dimethyldodeca-6,10-dien-2-yl)-9-ethyl-8,10-dihydroxy-3,17-dimethoxy-5,7,11,13-tetramethyl oxacyclooctadeca-3,5,13,15-tetraen-2-one] yielded an IC50 ([1]; Homo sapiens, 96 h) of 3 ng/mL (≈ 4.35 nM), an IC70 [1] of 6.0 ng/mL (≈ 8.7 nM) and an IC50 ([2]; Homo sapiens, OVCAR-3, 96 h) of 0.4 ng/mL (≈ 0.58 nM). For the same molecule, the IC70 [2] was >1000 ng/mL, the IC50 ([3]; Homo sapiens, 96 h) was 0.5 ng/mL (≈ 0.725 nM) and the IC70 [3] was >1000 ng/mL. It also gave an IC70 [4] of 2.0 ng/mL (≈ 2.9 nM), an IC50 ([4]; Homo sapiens, NCI-H460, 96 h) of 0.7 ng/mL (≈ 1.01 nM) and an IC50 ([5]; Homo sapiens, MEXF276L, 96 h) of 1 ng/mL (≈ 1.45 nM). For the same molecule, the IC70 [5] was 251.0 ng/mL (≈ 364 nM), the IC50 ([6]; Homo sapiens, 96 h) was < 0.1 ng/mL and the IC70 [6] was 0.1 ng/mL (≈ 0.145 nM). For the same molecule, the IC50 ([7]; Homo sapiens, 96 h) was 3 ng/mL (≈ 4.35 nM), the IC70 [7] was 8.0 ng/mL (≈ 11.6 nM) and the IC50 ([8]; Homo sapiens, 96 h) was 16 ng/mL (≈ 23.2 nM). It also gave an IC70 [8] of 39.0 ng/mL (≈ 56.5 nM).
